Experimental data from patent US20080221021A1, “Novel Corticotropin-Releasing Factor Receptor 1 (Crfr1) Agonist” (Max-Planck-Gesellschaft Zur Forderung Der, priority 2004, published 2008).
Entries after “also recorded” stand apart in the source; their conditions may differ. Where no end group is shown, it is not given here.

Experiments:
[1] = Isoelectric point by isoelectric focusing; assay type: physicochemical; details: IEF, pH range 3-10
Procedure: After dissolving the peptides in artificial cerebrospinal fluid (aCSF; 124 mM NaCl, 26.4 mM NaHCO3, 10 mM glucose, 3.3 mM KCl, 2.5 mM CaCl2 , 2.4 mM MgSO4 , 1.2 mM KH2PO4) at pH=7.4, the maximum solubility cmax was determined by amino acid analysis as described (21). The isoelectric point of the peptides was determined by isoelectric focusing (IEF) as described (21) with a Bio-Rad IEF cell system using Bio-Rad IEF strips in the pH range 3-10.

mCRFR2β = target: T1, mCRFR2β (Mus musculus, UniProt Q60748); assay: Competition binding scintillation proximity assay, mCRFR2β membranes
T1 construct: expressed in transfected cells
T1 sequence (Q60748 1-431 isoform Q60748-2): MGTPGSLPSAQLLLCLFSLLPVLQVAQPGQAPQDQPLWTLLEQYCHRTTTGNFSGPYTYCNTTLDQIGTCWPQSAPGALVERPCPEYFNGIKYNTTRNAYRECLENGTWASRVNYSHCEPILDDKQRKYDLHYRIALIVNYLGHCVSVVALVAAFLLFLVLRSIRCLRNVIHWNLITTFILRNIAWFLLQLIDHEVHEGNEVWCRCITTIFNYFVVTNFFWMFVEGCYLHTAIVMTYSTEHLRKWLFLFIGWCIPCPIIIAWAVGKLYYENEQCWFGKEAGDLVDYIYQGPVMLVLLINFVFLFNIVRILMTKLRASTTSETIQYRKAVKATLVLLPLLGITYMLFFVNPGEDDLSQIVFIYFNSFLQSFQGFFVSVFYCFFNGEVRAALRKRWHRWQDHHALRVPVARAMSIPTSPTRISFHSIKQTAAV
Procedure: (§1) Crude membrane fractions were prepared from human embryonic kidney (HEK) 293 cells stably expressing either cloned rat CRFR1α(rCRFR1) or mouse CRFR2β (mCRFR2β) as described (20). Rat CRFBP (rCRFBP) was produced in HEK 293 cells stably transfected with cDNA coding for rCRFBP C-terminally fused with a His6 sequence as described (36). The scintillation proximity assays (SPA) for binding analysis of CRFR and CRFBP have been already described in detail (21, 22). For competition binding assays of rCRFR1 and rCRFBP, [^125I-Tyr^0]h/rCRF was used as radiolabeled peptide, whereas [^125I-Tyr^0]Svg was employed for mCRFR2β.

C57BL/6J mice = assay: Elevated plus-maze test, i.c.v. injection; assay type: in vivo, mouse; details: for anxiety-like behavior (time spent in open arms, number of open arm entries) / locomotor activity (total distance crossed): 30 min before EPM, vs aCSF
Procedure: Nine-week old male C57BL/6J (Centre D'Elevage Janvier, Sultzfeld, France) were individually housed in macrolon cages according to the recommendations of the Society for Laboratory Animal Science (Germany). All experiments were carried out in accordance with the European Council Directive (86/609/EEC) with the permission of the Animal Protection Law enforced by the District Government of Braunschweig, State of Lower Saxony, Germany, which is in full agreement with the APA ethical guidelines. All efforts were made to minimize animal suffering. The number of mice per group was 9-11.
All peptides were dissolved in aCSF except for the CRFR2-selective antagonist antisauvagine-30 (aSvg-30) (20) that was initially dissolved in 10 mM aqueous acetic acid and diluted with the same volume of two-fold concentrated aCSF. The final pH of the peptide solutions was 7.4. The exact peptide concentration of the injection solutions was determined by amino acid analysis with a Beckman HPLC analyzer system 6300. Total hydrolysis of the peptides was carried out in the presence of 1 nmol norvaline as internal standard with 6 M HCl for 24 h at 100° C.
The elevated plus-maze (EPM) behavior of C57BL/6J mice cannulated in the lateral ventricles or lateral intermediate septal area (23) was investigated 30 min after injection of the CRFR1 agonist under investigation for 5 min in the EPM test (24). The CRFR2-selective antagonist aSvg-30 in aCSF or aCSF alone were injected 15 min before agonist administration. The behavior of the mice was recorded by a video camera connected to a PC and analyzed by the Technical & Scientific Equipment software VIDEOMOT 2. The time spent, distance crossed, and number of entries in the open arms, closed arms, and center were recorded. The cannular placement was confirmed for each mouse by histological examination of the brains after methylene blue injection (23). The behavioral data are expressed as mean±SEM, and were analyzed using a two- and one-way ANOVA, with Bonferroni/Dunn test applied, post hoc, for individual between-group comparisons at the p<0.05 level of significance. Shift of preference from the open to the closed arms was interpreted as an increase of anxiety-like behavior. Locomotor activity was determined with this test by the distance travelled.

[2] = assay type: physicochemical
Procedure: A high solubility under physiological conditions is a crucial prerequisite especially for compounds to be injected into the rodent brain. […] Both peptides were soluble in a concentration range of up to 1000 μM (FIG. 6), so that there was no limitation in view of the agonist doses typically used in behavioral experiments. […] Consequently, solutions of cortagine to be used in the pharmacological assays were prepared in phosphate buffered saline (PBS; pH=7.4).

rCRFR1 = target: T2, rCRFR1 (Rattus norvegicus, UniProt P35353); assay: Agonist-induced intracellular cAMP accumulation in HEK 293 cells producing rCRFR1; assay type: cell-based
T2 construct: expressed in transfected cells
T2 sequence (P35353 24-415): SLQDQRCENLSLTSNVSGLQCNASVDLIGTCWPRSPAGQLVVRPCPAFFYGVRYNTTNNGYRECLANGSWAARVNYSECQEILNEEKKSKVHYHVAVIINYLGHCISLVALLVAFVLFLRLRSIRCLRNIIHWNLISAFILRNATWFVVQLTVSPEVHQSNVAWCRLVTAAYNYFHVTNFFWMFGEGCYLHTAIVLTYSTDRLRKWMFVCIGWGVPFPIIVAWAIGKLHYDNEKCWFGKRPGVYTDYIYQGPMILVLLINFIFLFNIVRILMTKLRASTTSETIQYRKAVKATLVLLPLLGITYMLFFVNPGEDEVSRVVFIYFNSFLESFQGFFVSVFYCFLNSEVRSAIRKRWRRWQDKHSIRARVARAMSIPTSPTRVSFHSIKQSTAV
Procedure: The biological potency of cortagine and OCRF was evaluated by the determination of the EC50 values for agonist-induced intracellular accumulation of cAMP in HEK 293 cells producing either rCRFR1 or mCRFR2β.
The HEK 293 cells were plated into 24 well cell culture plates and stimulated as described (21) using increasing concentrations of the agonists under investigation. Intracellular cAMP was measured with the Biotrak™ cAMP [^125I] SPA system (Amersham Pharmacia Biotech) according to the manufacturer's product manual.

rCRFBP = target: T3, rCRFBP (Rattus norvegicus, UniProt P24388); assay: Competition binding scintillation proximity assay, rCRFBP; details: binding analysis, in words
T3 construct: His6 (C); made in house; host or cells: HEK 293 cells, stably transfected
T3 sequence (P24388 25-322): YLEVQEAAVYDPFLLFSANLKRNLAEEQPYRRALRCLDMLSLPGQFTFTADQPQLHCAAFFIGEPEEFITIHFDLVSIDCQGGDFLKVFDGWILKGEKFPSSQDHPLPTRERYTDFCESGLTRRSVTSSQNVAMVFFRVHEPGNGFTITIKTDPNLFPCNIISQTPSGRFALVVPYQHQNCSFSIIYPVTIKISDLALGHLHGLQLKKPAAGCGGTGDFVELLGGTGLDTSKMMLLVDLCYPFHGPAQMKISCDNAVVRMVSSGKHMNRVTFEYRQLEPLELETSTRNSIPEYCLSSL
Procedure: as §1

[3] = i.c.v., two-way ANOVA over doses, EPM

[Glu^21, Ala^40] [Svg^1-12]x[h/rCRF^14-30]x[Svg^30-40] (XGPPISIDLSLELLREVLEMERAEQLAQQAANNRLLLDTA; X not resolved here; ends and bridges not checked; also: Glx at position 1 not given here (Gln/Glu/pGlu)) [cortagine]
isoelectric point pI [1]: 4.8
affinity for CRFR2 (mCRFR2β; binding analysis, in words): negligible
change in affinity for CRFR2 in comparison to parent peptide (mCRFR2β; compound 8 vs compound 6, compound 9 vs compound 8): no significant change
anxiety-like behavior (time spent in open arms, number of open arm entries) (C57BL/6J mice; 10 ng i.c.v.): ineffective
locomotor activity (total distance crossed) (C57BL/6J mice; 10 ng i.c.v.): ineffective
anxiety-like behavior (time spent in open arms, number of open arm entries) (C57BL/6J mice; 30 ng i.c.v.): significantly decreased time spent in open arms; also recorded: increased significantly anxiety-like behavior; also recorded: increased anxiety levels
locomotor activity (total distance crossed) (C57BL/6J mice; 30 ng i.c.v.): decreased significantly; also recorded: reduced locomotor activity
anxiety-like behavior (time spent in open arms, number of open arm entries) (C57BL/6J mice; 100 ng i.c.v.): increased significantly anxiety-like behavior; also recorded: increased anxiety levels
locomotor activity (total distance crossed) (C57BL/6J mice; 100 ng i.c.v.): decreased significantly; also recorded: reduced locomotor activity
anxiety-like behavior (time spent in open arms, number of open arm entries) (C57BL/6J mice; 300 ng i.c.v.): increased significantly anxiety-like behavior; also recorded: increased anxiety levels
locomotor activity (total distance crossed) (C57BL/6J mice; 300 ng i.c.v.): decreased significantly; also recorded: reduced locomotor activity
ability to modulate locomotor activity, cortagine vs oCRF (C57BL/6J mice; [3]): did not differ
anxiogenic potency compared to oCRF (C57BL/6J mice; [3]): significantly higher anxiogenic potency; also recorded: doses lower than required of OCRF
solubility in 10 mM aqueous acetic acid [2]: insoluble
biological potency at rCRFR1 (rCRFR1; cAMP accumulation, in words): high agonistic potency and high
CRFR1-selectivity over CRFR2β, EC50(mCRFR2)/EC50(rCRFR1) (rCRFR1; ratio of biological potencies (cAMP)): 89
affinity to CRFBP (rCRFBP): negligible; also recorded: does not display any detectable affinity
affinity to CRFBP (rCRFBP; listed as compound 9): completely abolished
